Test results as given in patent publication US11897880B2, “7,8-dihydrobenzo[e]pyrido[3,4-c]azocine-2,5(3H,6H)-dione derivatives useful as a factor XIa inhibitors” (Janssen Pharmaceutica NV, priority 2021, dated 2024).
Like-named read-outs stand apart in the source and are kept apart here.

Legend:
human plasma kallikrein = human plasma kallikrein (Homo sapiens, UniProt P03952); test: Kallikrein inhibition assay utilizing a quenched AMC peptide substrate (FLINT); assay type: biochemical; conditions: 30 min preincubation, 50 μM Z-Gly-Pro-Arg-AMC, 2 nM kallikrein
Procedure, shortened: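 Human plasma kallikrein (2 nM final) was preincubated 30 min at room temperature with compound (11-point 3-fold dilution, top 1 μM, 2% DMSO) in pH 7.5 Tris buffer with CaCl2, BSA and CHAPS. Z-Gly-Pro-Arg-AMC (50 μM final) fluorescence was read at 340/440 nm every 5 min for 30 min. IC50 came from a 4-parameter logistic fit.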

Factor XIa = Factor XIa (Homo sapiens, UniProt P03951); test: Factor XIa inhibition assay utilizing a fluorophore-quencher pair peptide substrate (FLINT); assay type: biochemical; conditions: for Ki: read-out: FXIa Ki; for IC50: read-out: FXIa IC50
Procedure, shortened: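 Enzyme preincubated 30 min at room temperature with compound (11-point 3-fold dilution, top 100 nM, 2% DMSO), then 15 μM 5Fam-KLTRAETV-K5Tamra substrate added. Buffer: 50 mM Tris pH 7.5, 100 mM NaCl, 5 mM CaCl2, 0.1 mg/mL BSA, 0.03% CHAPS. Fluorescence (485/520 nm) read kinetically over 30 min; IC50 from 4-parameter logistic fit.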

[1] = cells that print μM themselves in the nM column
[2] = cells that print μM themselves in the nM column, same assay conditions
[3] = 30 min preincubation, 5Fam-KLTRAETV-K5Tamra substrate 15 μM final, kinetic reads

Chain of human plasma kallikrein (P03952 391-638 limits assumed): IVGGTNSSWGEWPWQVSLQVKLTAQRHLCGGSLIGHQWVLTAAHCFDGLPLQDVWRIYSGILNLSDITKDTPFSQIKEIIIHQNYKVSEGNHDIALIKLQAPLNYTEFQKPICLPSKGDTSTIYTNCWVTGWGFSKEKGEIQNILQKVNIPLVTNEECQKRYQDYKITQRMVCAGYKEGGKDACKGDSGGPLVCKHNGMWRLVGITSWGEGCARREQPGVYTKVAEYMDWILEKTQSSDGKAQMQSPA
Chain of human plasma kallikrein (P03952 20-390 partner limits assumed): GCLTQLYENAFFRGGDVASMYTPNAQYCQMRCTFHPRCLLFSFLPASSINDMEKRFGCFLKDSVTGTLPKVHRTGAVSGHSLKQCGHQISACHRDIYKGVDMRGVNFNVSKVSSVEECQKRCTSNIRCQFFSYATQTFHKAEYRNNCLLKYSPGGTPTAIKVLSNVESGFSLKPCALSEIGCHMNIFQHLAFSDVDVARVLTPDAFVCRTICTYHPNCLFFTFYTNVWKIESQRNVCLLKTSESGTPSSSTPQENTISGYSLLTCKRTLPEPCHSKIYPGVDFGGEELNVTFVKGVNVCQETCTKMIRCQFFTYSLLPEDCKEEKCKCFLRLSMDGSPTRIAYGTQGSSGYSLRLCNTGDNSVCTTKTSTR
Chain of Factor XIa (P03951 388-625 limits assumed): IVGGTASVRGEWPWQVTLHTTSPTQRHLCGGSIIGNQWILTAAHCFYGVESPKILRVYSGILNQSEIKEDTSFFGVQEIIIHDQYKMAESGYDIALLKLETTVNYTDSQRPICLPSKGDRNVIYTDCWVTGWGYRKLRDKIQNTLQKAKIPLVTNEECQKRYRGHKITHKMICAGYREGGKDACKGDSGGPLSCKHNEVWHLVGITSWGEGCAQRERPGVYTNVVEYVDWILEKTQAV
Chain of Factor XIa (P03951 19-387 partner limits assumed): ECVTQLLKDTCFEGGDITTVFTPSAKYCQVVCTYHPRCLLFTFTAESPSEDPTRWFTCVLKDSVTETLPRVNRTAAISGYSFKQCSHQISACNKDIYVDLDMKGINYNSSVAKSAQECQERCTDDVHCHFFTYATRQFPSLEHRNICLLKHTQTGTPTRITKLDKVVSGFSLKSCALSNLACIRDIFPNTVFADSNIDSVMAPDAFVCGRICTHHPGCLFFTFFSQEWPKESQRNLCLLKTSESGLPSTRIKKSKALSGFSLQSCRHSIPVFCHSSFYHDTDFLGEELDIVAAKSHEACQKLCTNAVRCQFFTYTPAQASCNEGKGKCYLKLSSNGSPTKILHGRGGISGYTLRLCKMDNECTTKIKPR

SMILES | IC50 (human plasma kallikrein) [nM] | Ki (Factor XIa; [1]) [µM] | IC50 (Factor XIa; [2]) [µM] | IC50 (Factor XIa; [3]) [µM] | Ki (Factor XIa) [µM]
Cn1nncc1-c1cnc([C@H]2CCc3c4c(cc(=O)n32)-c2c(ccc(Cl)c2F)CCNC4=O)[nH]1 (stereo in doubt) [Compound 45, (R*)-7-chloro-8-fluoro-12-(5-(1-methyl-1H-1,2,3-triazol-5-yl)-1H-imidazol-2-yl)-3,4,13,14-tetrahydrobenzo[5,6]azocino[4,3-g]indolizine-1,10(2H,12H)-dione] | > 10000 | 2.58 | 5.15 | – | –
O=C1NC2(CC2)Cc2ccc(Cl)c(F)c2-c2cc(=O)n3c(c21)CC[C@@H]3c1ncc(-c2ccc3cncn3c2)[nH]1 (stereo in doubt) [Compound 22, (R*)-7-chloro-8-fluoro-12-(5-(imidazo[1,5-a]pyridin-6-yl)-1H-imidazol-2-yl)-13,14-dihydro-2H-spiro[benzo[5,6]azocino[4,3-g]indolizine-3,1′-cyclopropane]-1,10(4H,12H)-dione] | > 10000 | 2.54 | 5.07 | – | –
Nc1ccc(-c2cnc([C@H]3CCc4c5c(cc(=O)n43)-c3c(ccc(Cl)c3F)CC3(CCC3)NC5=O)[nH]2)c(F)n1 (stereo in doubt) [Compound 33, (R*)-12-(5-(6-amino-2-fluoropyridin-3-yl)-1H-imidazol-2-yl)-7-chloro-8-fluoro-13,14-dihydro-2H-spiro[benzo[5,6]azocino[4,3-g]indolizine-3,1′-cyclobutane]-1,10(4H,12H)-dione] | > 10000 | – | – | 0.237 | 0.118
Nc1ccc(-c2cnc([C@H]3CCc4c5c(cc(=O)n43)-c3c(ccc(Cl)c3F)CC3(CCCC3)NC5=O)[nH]2)c(F)n1 (stereo in doubt) [Compound 34, (R*)-12-(5-(6-amino-2-fluoropyridin-3-yl)-1H-imidazol-2-yl)-7-chloro-8-fluoro-13,14-dihydro-2H-spiro[benzo[5,6]azocino[4,3-g]indolizine-3,1′-cyclopentane]-1,10(4H,12H)-dione] | 6210 | – | – | 0.0337 | 0.0169
Nc1ccc(-c2cnc(C3CCc4c5c(cc(=O)n43)-c3c(ccc(Cl)c3F)-c3ccccc3NC5=O)[nH]2)c(F)n1 (single isomer, unassigned) [Compound 39, (S*)-3-(5-(6-amino-2-fluoropyridin-3-yl)-1H-imidazol-2-yl)-8-chloro-7-fluoro-2,3-dihydrodibenzo[5,6:7,8]azocino[4,3-g]indolizine-5,16(1H,15H)-dione] | > 10000 | > 5 | > 10 | – | –
O=C1NC2(CC2)Cc2ccc(Cl)c(F)c2-c2cc(=O)n3c(c21)CC[C@H]3c1ncc(-c2ccc3scnc3c2)[nH]1 (stereo in doubt) [Compound 27, (S*)-12-(5-(benzo[d]thiazol-5-yl)-1H-imidazol-2-yl)-7-chloro-8-fluoro-13,14-dihydro-2H-spiro[benzo[5,6]azocino[4,3-g]indolizine-3,1′-cyclopropane]-1,10(4H,12H)-dione] | > 10000 | 1.19 | 2.39 | – | –
Cn1ncc(-c2cnc(C(CC3CC3)n3cc4c(cc3=O)-c3c(ccc(Cl)c3F)CC3(CC3)NC4=O)[nH]2)cc1=O (single isomer, unassigned) [Compound 58, (R*)-11-chloro-3-(2-cyclopropyl-1-(5-(1-methyl-6-oxo-1,6-dihydropyridazin-4-yl)-1H-imidazol-2-yl)ethyl)-12-fluoro-3H-spiro[benzo[e]pyrido[3,4-c]azocine-7,1′-cyclopropane]-2,5(6H,8H)-dione] | > 10000 | > 5 | > 10 | – | –
Nc1ccc(-c2cnc(C3CCc4c5c(cc(=O)n43)-c3c(ccc(Cl)c3F)CC3(CC3)NC5=O)[nH]2)c(F)n1 (single isomer, unassigned) [Compound 55] | 90 | – | – | 0.0003 | 0.0001
Cc1nc2cc(-c3cnc([C@H]4CCc5c6c(cc(=O)n54)-c4c(ccc(Cl)c4F)CC4(CC4)NC6=O)[nH]3)ccc2s1 (stereo in doubt) [Compound 5, (R*)-7-chloro-8-fluoro-12-(5-(2-methylbenzo[d]thiazol-5-yl)-1H-imidazol-2-yl)-13,14-dihydro-2H-spiro[benzo[5,6]azocino[4,3-g]indolizine-3,1′-cyclopropane]-1,10(4H,12H)-dione] | 60 | – | – | 0.0021 | 0.001
Nc1ccc(-c2cnc([C@@H]3CCc4c5c(cc(=O)n43)-c3c(ccc(Cl)c3F)CC3(CCCC3)NC5=O)[nH]2)c(F)n1 (stereo in doubt) [Compound 35, (S*)-12-(5-(6-amino-2-fluoropyridin-3-yl)-1H-imidazol-2-yl)-7-chloro-8-fluoro-13,14-dihydro-2H-spiro[benzo[5,6]azocino[4,3-g]indolizine-3,1′-cyclopentane]-1,10(4H,12H)-dione] | 90 | – | – | 0.0004 | 0.0002
COCCN1C(=O)c2c(cc(=O)n3c2CC[C@@H]3c2ncc(-c3ccc(N)nc3F)[nH]2)-c2c(ccc(Cl)c2F)CC12CC2 (stereo in doubt) [Compound 24, (R*)-12-(5-(6-amino-2-fluoropyridin-3-yl)-1H-imidazol-2-yl)-7-chloro-8-fluoro-2-(2-methoxyethyl)-13,14-dihydro-2H-spiro[benzo[5,6]azocino[4,3-g]indolizine-3,1′-cyclopropane]-1,10(4H,12H)-dione] | > 10000 | > 5 | – | > 0.01 | –
Nc1ccc(-c2cnc(C3CCc4c5c(cc(=O)n43)-c3c(ccc(Cl)c3F)-c3ccccc3NC5=O)[nH]2)c(F)n1 (single isomer, unassigned) [Compound 38, (R*)-3-(5-(6-amino-2-fluoropyridin-3-yl)-1H-imidazol-2-yl)-8-chloro-7-fluoro-2,3-dihydrodibenzo[5,6:7,8]azocino[4,3-g]indolizine-5,16(1H,15H)-dione] | 1620 | – | – | 0.0372 | 0.0186
O=C1NC2(CC2)Cc2ccc(Cl)c(F)c2-c2cc(=O)n3c(c21)CC[C@H]3c1ncc(-c2ccn3ccnc3c2)[nH]1 (stereo in doubt) [Compound 7, (S*)-7-chloro-8-fluoro-12-(5-(imidazo[1,2-a]pyridin-7-yl)-1H-imidazol-2-yl)-13,14-dihydro-2H-spiro[benzo[5,6]azocino[4,3-g]indolizine-3,1′-cyclopropane]-1,10(4H,12H)-dione] | 420 | – | – | 0.0023 | 0.0011
Nc1ccc(-c2cnc([C@H]3CCc4c5c(cc(=O)n43)-c3c(ccc(Cl)c3F)CC3(CC3)NC5=O)[nH]2)c(Cl)n1 (stereo in doubt) [Compound 53, (R*)-12-(5-(6-amino-2-chloropyridin-3-yl)-1H-imidazol-2-yl)-7-chloro-8-fluoro-13,14-dihydro-2H-spiro[benzo[5,6]azocino[4,3-g]indolizine-3,1′-cyclopropane]-1,10(4H,12H)-dione] | > 10000 | – | – | 0.0959 | 0.0479
Nc1ccc(-c2cnc([C@@H]3CCc4c5c(cc(=O)n43)-c3c(ccc(Cl)c3F)CC3(CCC3)NC5=O)[nH]2)c(F)n1 (stereo in doubt) [Compound 32, (S*)-12-(5-(6-amino-2-fluoropyridin-3-yl)-1H-imidazol-2-yl)-7-chloro-8-fluoro-13,14-dihydro-2H-spiro[benzo[5,6]azocino[4,3-g]indolizine-3,1′-cyclobutane]-1,10(4H,12H)-dione] | 230 | – | – | 0.0007 | 0.0004
